Measurements taken from ChEMBL document CHEMBL4433266, “Design, synthesis and antimycobacterial activity of benzoxazinone derivatives and open-ring analogues: Preliminary data and computational analysis” (Bioorg Med Chem Lett, 2019).
≈ marks a conversion by molar mass, not a printed value.

Assays:
[1] = tested on: Mycobacterium tuberculosis; experiment: Antimycobacterial activity against Mycobacterium tuberculosis H37Rv ATCC 27294 assessed as inhibition of bacterial cell growth incubated for 7 days by resazurin microtiter assay; assay type: functional; details: H37Rv ATCC 27294, 168 h
[2] = Cytotoxicity in African green monkey Vero cells assessed as reduction in cell viability incubated for 72 hrs by MTT assay; assay type: cell-based; details: chlorocebus sabaeus
[3] = tested on: Mycobacterium tuberculosis; experiment: Antimycobacterial activity against Mycobacterium tuberculosis H37Ra ATCC 25197 assessed as inhibition of bacterial cell growth incubated for 7 days by resazurin microtiter assay; assay type: functional; details: H37Ra ATCC 25197, 168 h
[4] = Selectivity index, ratio of CC50 for African green monkey Vero cells to MIC for antimycobacterial activity against Mycobacterium tuberculosis H37Ra ATCC 25197; assay type: toxicity; details: read-out: Selectivity Index

SMILES	MIC [1] [µM]	CC50 at 72 h [2] [µM]	MIC [3] [µM]	selectivity ratio [4]
COC(=O)/C=C1\Nc2ccccc2OC1=O	4.5 (≈ 0.986 µg/mL)	> 2280	18 (≈ 3.95 µg/mL)	> 125
COC(=O)/C=C1\Nc2cc(Cl)ccc2OC1=O	31 (≈ 7.86 µg/mL)	1630	63 (≈ 16 µg/mL)	26
COC(=O)/C=C1\Nc2ccc(Cl)cc2OC1=O	3.9 (≈ 0.989 µg/mL)	1600	7.9 (≈ 2 µg/mL)	202
O=C1Oc2ccccc2N/C1=C\C(=O)c1ccccc1Cl		1570	13 (≈ 3.9 µg/mL)	118
O=C1Nc2ccccc2O/C1=C\c1ccccc1			270 (≈ 64.1 µg/mL)	
O=C1Oc2ccccc2N/C1=C\C(=O)c1ccc(-c2ccccc2)cc1		> 366	12 (≈ 4.1 µg/mL)	> 30
COC(=O)/C=C1\Nc2ccccc2OC1O (stereo unspecified)			289 (≈ 63.9 µg/mL)	
COC(=O)/C=C1\Nc2ncccc2OC1=O			> 217	
O=C1Oc2ccccc2N/C1=C\C(=O)c1c[nH]c2ccccc12	3.3 (≈ 1 µg/mL)	> 1640	6.5 (≈ 1.98 µg/mL)	> 250
O=C1Oc2ccccc2N/C1=C\C(=O)c1cccs1	14.7 (≈ 3.99 µg/mL)	> 1840	7.3 (≈ 1.98 µg/mL)	> 250
Cc1ccccc1C(=O)/C=C1\Nc2ccccc2OC1=O		> 1790	14 (≈ 3.91 µg/mL)	> 125
O=C1Nc2ccccc2O/C1=C\c1ccccc1Cl			238 (≈ 64.7 µg/mL)	
Cc1ccc(C(=O)/C=C2\Nc3ccccc3OC2=O)cc1		1650	14 (≈ 3.91 µg/mL)	115
O=C1Oc2ccccc2N/C1=C\C(=O)N1CCOCC1	7.3 (≈ 2 µg/mL)	1140	7.3 (≈ 2 µg/mL)	155
COC(=O)/C=C1\Nc2cc(-c3ccccc3)ccc2OC1=O			145 (≈ 42.8 µg/mL)	
O=C(NNC(=O)c1ccncc1)C(=O)Nc1ccccc1O	3.3 (≈ 0.991 µg/mL)	1410	0.42 (≈ 0.126 µg/mL)	3380

SMILES	MIC [1] [µM]	CC50 at 72 h [2] [µM]	MIC [3] [µM]	selectivity ratio [4]
COC(=O)/C=C1/Oc2ccccc2NC1=O			291 (≈ 63.8 µg/mL)	
O=C1Oc2ccccc2N/C1=C\C(=O)c1ccc(Cl)cc1		1250	13 (≈ 3.9 µg/mL)	94
O=C(NNC(=O)c1ccncc1)C(=O)Nc1ccc(Cl)cc1O	3.1 (≈ 1.04 µg/mL)	1160	0.75 (≈ 0.251 µg/mL)	1560
O=C1Oc2ccccc2N/C1=C\C(=O)c1ccccc1		> 942	15 (≈ 3.98 µg/mL)	> 62
CN1C(=O)/C(=C/c2ccccc2Cl)Oc2ccccc21			224 (≈ 64 µg/mL)	
COC(=O)/C=C1\Nc2cc3ccccc3cc2OC1=O			> 238	
O=C1/C(=C/c2ccccc2)Oc2ccccc2N1Cc1ccccc1			196 (≈ 64.2 µg/mL)	
O=C1Oc2ccccc2N/C1=C\C(=O)c1ccncc1		> 1880	15 (≈ 3.99 µg/mL)	> 125
Cc1cccc(C(=O)/C=C2\Nc3ccccc3OC2=O)c1		> 1790	14 (≈ 3.91 µg/mL)	> 125
COC(=O)CC1Nc2ccccc2OC1=O (stereo unspecified)		1550	36 (≈ 7.96 µg/mL)	43
O=C1/C(=C/c2ccccc2Cl)Oc2ccccc2N1Cc1ccccc1			177 (≈ 64 µg/mL)	
O=C1Oc2ccccc2N/C1=C\C(=O)c1cccc(Cl)c1		1610	13 (≈ 3.9 µg/mL)	120
CN1C(=O)/C(=C/c2ccccc2)Oc2ccccc21			127 (≈ 31.9 µg/mL)	
O=C(NNC(=O)c1ccncc1)C(=O)Nc1cc(Cl)ccc1O	3.1 (≈ 1.04 µg/mL)	1200	0.37 (≈ 0.124 µg/mL)	3320
NNC(=O)c1ccncc1 [ISONIAZID]	1.8 (≈ 0.247 µg/mL)	> 7300	0.91 (≈ 0.125 µg/mL)	> 8000
